Measurements reported in publication doi:10.1101/2024.09.05.611349v1 (biorxiv, 2024).
≈ marks a conversion by molar mass, not a printed value. Like-named read-outs stand apart in the source and are kept apart here.

Experiments:
Test in all cases: microbe, parasite or virus in culture
Parameters in all cases: species or system gram-positive clinical isolates
[1] = tested on: Enterococcus faecalis EFA 15-1; conditions: Enterococcus faecalis
[2] = tested on: Enterococcus faecalis EFA 15-2; conditions: Enterococcus faecalis
[3] = tested on: Enterococcus faecalis EFA 15-57; conditions: Enterococcus faecalis
[4] = tested on: Enterococcus faecalis EFA 15-58; conditions: Enterococcus faecalis
[5] = tested on: Enterococcus faecalis EFA 15-60; conditions: Enterococcus faecalis
[6] = tested on: Enterococcus faecium EFM 15-1; conditions: Enterococcus faecium
[7] = tested on: Enterococcus faecium EFM 15-2; conditions: Enterococcus faecium
[8] = tested on: Enterococcus faecium EFM 15-52; conditions: Enterococcus faecium
[9] = tested on: Enterococcus faecium EFM 15-7; conditions: Enterococcus faecium
[10] = tested on: Enterococcus faecium EFM 15-9; conditions: Enterococcus faecium
[11] = tested on: Staphylococcus aureus MRSA 15-2; conditions: Staphylococcus aureus, MRSA
[12] = tested on: Staphylococcus aureus MRSA 16-1; conditions: Staphylococcus aureus, MRSA
[13] = tested on: Staphylococcus aureus MRSA 16-2; conditions: Staphylococcus aureus, MRSA
[14] = tested on: Staphylococcus aureus MRSA 17-4; conditions: Staphylococcus aureus, MRSA
[15] = tested on: Staphylococcus aureus MRSA 17-7; conditions: Staphylococcus aureus, MRSA
[16] = tested on: Staphylococcus aureus MSSA 15-1; conditions: Staphylococcus aureus, MSSA
[17] = tested on: Staphylococcus aureus MSSA 15-5; conditions: Staphylococcus aureus, MSSA
[18] = tested on: Staphylococcus aureus MSSA 16-1; conditions: Staphylococcus aureus, MSSA
[19] = tested on: Staphylococcus aureus MSSA 16-2; conditions: Staphylococcus aureus, MSSA
[20] = tested on: Staphylococcus epidermidis MRSE 15-2; conditions: Staphylococcus epidermidis, MRSE
[21] = tested on: Staphylococcus epidermidis MRSE 15-80; conditions: Staphylococcus epidermidis, MRSE
[22] = tested on: Staphylococcus epidermidis MRSE 15-81; conditions: Staphylococcus epidermidis, MRSE
[23] = tested on: Staphylococcus epidermidis MRSE 15-82; conditions: Staphylococcus epidermidis, MRSE
[24] = tested on: Staphylococcus epidermidis MRSE 15-83; conditions: Staphylococcus epidermidis, MRSE
[25] = tested on: Staphylococcus epidermidis MRSE 17-1; conditions: Staphylococcus epidermidis, MRSE
[26] = tested on: Staphylococcus epidermidis MRSE 17-3; conditions: Staphylococcus epidermidis, MRSE
[27] = read-out: MIC(μg/ml) / vancomycin

CN[C@H](CC(C)C)C(=O)N[C@H]1C(=O)N[C@@H](CC(N)=O)C(=O)N[C@H]2C(=O)N[C@H]3C(=O)N[C@H](C(=O)N[C@H](C(=O)O)c4cc(O)cc(O)c4-c4cc3ccc4O)[C@H](O)c3ccc(c(Cl)c3)Oc3cc2cc(c3O[C@@H]2O[C@H](CO)[C@@H](O)[C@H](O)[C@H]2O[C@H]2C[C@](C)(N)[C@H](O)[C@H](C)O2)Oc2ccc(cc2Cl)[C@H]1O [vancomycin]
MIC ([1]; EFA151, read-out: MIC(μg/ml) / vancomycin): 0.5 µg/mL (≈ 0.345 µM)
MIC ([2]; EFA152, read-out: MIC(μg/ml) / vancomycin): 0.5 µg/mL (≈ 0.345 µM)
MIC ([3]; EFA1557, read-out: MIC(μg/ml) / vancomycin): 2 µg/mL (≈ 1.38 µM)
MIC ([4]; EFA1558, read-out: MIC(μg/ml) / vancomycin): 0.5 µg/mL (≈ 0.345 µM)
MIC ([5]; EFA1560, read-out: MIC(μg/ml) / vancomycin): 8 µg/mL (≈ 5.52 µM)
MIC ([6]; EFM151, read-out: MIC(μg/ml) / vancomycin): 1 µg/mL (≈ 0.69 µM)
MIC ([7]; EFM152, read-out: MIC(μg/ml) / vancomycin): 2 µg/mL (≈ 1.38 µM)
MIC ([8]; EFM1552, read-out: MIC(μg/ml) / vancomycin): 2 µg/mL (≈ 1.38 µM)
MIC ([9]; EFM157, read-out: MIC(μg/ml) / vancomycin): 0.5 µg/mL (≈ 0.345 µM)
MIC ([10]; EFM159, read-out: MIC(μg/ml) / vancomycin): 0.5 µg/mL (≈ 0.345 µM)
MIC [11, 27]: 2 µg/mL (≈ 1.38 µM)
MIC [12, 27]: 1 µg/mL (≈ 0.69 µM)
MIC [13, 27]: 1 µg/mL (≈ 0.69 µM)
MIC [14, 27]: 1 µg/mL (≈ 0.69 µM)
MIC [15, 27]: 0.25 µg/mL (≈ 0.173 µM)
MIC [16, 27]: 1 µg/mL (≈ 0.69 µM)
MIC [17, 27]: 0.5 µg/mL (≈ 0.345 µM)
MIC [18, 27]: 0.5 µg/mL (≈ 0.345 µM)
MIC [19, 27]: 0.5 µg/mL (≈ 0.345 µM)
MIC [20, 27]: 2 µg/mL (≈ 1.38 µM)
MIC [21, 27]: 2 µg/mL (≈ 1.38 µM)
MIC [22, 27]: 2 µg/mL (≈ 1.38 µM)
MIC [23, 27]: 1 µg/mL (≈ 0.69 µM)
MIC [24, 27]: 1 µg/mL (≈ 0.69 µM)
MIC [25, 27]: 1 µg/mL (≈ 0.69 µM)
MIC [26, 27]: 2 µg/mL (≈ 1.38 µM)

CCCCCOc1ccc(C(=O)NNC(=S)NC(C)=O)cc1 [1b, N-(2-(4-(n-pentoxy)benzoyl)hydrazine-1-carbonothioyl)acetamide]
MIC ([1]; EFA151, read-out: MIC(μg/ml) / 1b): 8 µg/mL (≈ 24.7 µM)
MIC ([2]; EFA152, read-out: MIC(μg/ml) / 1b): 8 µg/mL (≈ 24.7 µM)
MIC ([3]; EFA1557, read-out: MIC(μg/ml) / 1b): 4 µg/mL (≈ 12.4 µM)
MIC ([4]; EFA1558, read-out: MIC(μg/ml) / 1b): 4 µg/mL (≈ 12.4 µM)
MIC ([5]; EFA1560, read-out: MIC(μg/ml) / 1b): 8 µg/mL (≈ 24.7 µM)
MIC ([6]; EFM151, read-out: MIC(μg/ml) / 1b): 8 µg/mL (≈ 24.7 µM)
MIC ([7]; EFM152, read-out: MIC(μg/ml) / 1b): 4 µg/mL (≈ 12.4 µM)
MIC ([8]; EFM1552, read-out: MIC(μg/ml) / 1b): 8 µg/mL (≈ 24.7 µM)
MIC ([9]; EFM157, read-out: MIC(μg/ml) / 1b): 2 µg/mL (≈ 6.18 µM)
MIC ([10]; EFM159, read-out: MIC(μg/ml) / 1b): 4 µg/mL (≈ 12.4 µM)
MIC ([11]; read-out: MIC(μg/ml) / 1b): 4 µg/mL (≈ 12.4 µM)
MIC ([12]; read-out: MIC(μg/ml) / 1b): 2 µg/mL (≈ 6.18 µM)
MIC ([13]; read-out: MIC(μg/ml) / 1b): 2 µg/mL (≈ 6.18 µM)
MIC ([14]; read-out: MIC(μg/ml) / 1b): 2 µg/mL (≈ 6.18 µM)
MIC ([15]; read-out: MIC(μg/ml) / 1b): 2 µg/mL (≈ 6.18 µM)
MIC ([16]; read-out: MIC(μg/ml) / 1b): 1 µg/mL (≈ 3.09 µM)
MIC ([17]; read-out: MIC(μg/ml) / 1b): 2 µg/mL (≈ 6.18 µM)
MIC ([18]; read-out: MIC(μg/ml) / 1b): 1 µg/mL (≈ 3.09 µM)
MIC ([19]; read-out: MIC(μg/ml) / 1b): 1 µg/mL (≈ 3.09 µM)
MIC ([20]; read-out: MIC(μg/ml) / 1b): 4 µg/mL (≈ 12.4 µM)
MIC ([21]; read-out: MIC(μg/ml) / 1b): 1 µg/mL (≈ 3.09 µM)
MIC ([22]; read-out: MIC(μg/ml) / 1b): 0.5 µg/mL (≈ 1.55 µM)
MIC ([23]; read-out: MIC(μg/ml) / 1b): 1 µg/mL (≈ 3.09 µM)
MIC ([24]; read-out: MIC(μg/ml) / 1b): 1 µg/mL (≈ 3.09 µM)
MIC ([25]; read-out: MIC(μg/ml) / 1b): 0.5 µg/mL (≈ 1.55 µM)
MIC ([26]; read-out: MIC(μg/ml) / 1b): 1 µg/mL (≈ 3.09 µM)
